Laboratory results from paper PMC9683047, “Design, synthesis and biological evaluation of 4-aminoquinoline derivatives as receptor-interacting protein kinase 2 (RIPK2) inhibitors” (Journal of Enzyme Inhibition and Medicinal Chemistry, 2022).

Key:
RIPK2 = target: T1, RIPK2 (Homo sapiens, UniProt O43353); experiment: RIPK2 kinase inhibition assay (ADP-Glo); type: biochemical; conditions: mean ± SD from two separate experiments
T1 construct: purchased Promega
Procedure: RIPK2 kinase activity was analysed using the ADP-Glo™ Assay Kit (RIPK2 Kinase Enzyme System, Promega, USA). Reactions were performed according to the instructions. Specific signal was calculated by subtracting values in the wells without protein and inhibitor from the values in the test wells.

[1] = tested on: MDP-induced TNF-α secretion in Raw264.7; experiment: TNF-α secretion in MDP-induced Raw264.7 (ELISA); type: cell-based, mouse; conditions: Raw264.7, compounds 1 h then L18-MDP 20 µg/mL 24 h, series concentration
Procedure: Raw 264.7 was cultured in DMEM containing 10% (w/v) foetal bovine serum (FBS). Cell were seeded at a density of 1 × 10^5 cells/well in a 48 well plate overnight, then cells were treated with different concentrations of compounds for1h, following by stimulated with L18-MDP (20 µg/mL, Invivogen) for 24 h. The Cell supernatants were harvested for enzyme-linked immunosorbent assay (ELISA).
TNFα commercial ELISA kits (DAKEWE) were used to detect TNFα in cell culture supernatants according to the manufacturer’s instructions. The concentration of cytokines was determined using multiwell spectrophotometer (SpetraMAX PLUS, Molecular Devices).

[2] = Human liver microsome stability; type: in vitro ADME; conditions: human liver microsomes
ALK(h) = target: T2, ALK(h) (Homo sapiens, UniProt Q9UM73); experiment: Kinase selectivity panel: ALK; type: biochemical; conditions: 1 µM
T2 construct: purchased Eurofins (Millipore) KinaseProfiler Diversity Panel
Procedure: (§1) To confirm the anti-inflammatory effect was caused by RIPK2 inhibition, compound 14 was subjected to kinase selectivity evaluation (Figure 4). Kinase selectivity profile of compound 14 as shown by the diversity kinase Panel screen against 70 kinases assayed at 1 µM. Among all tested 70 kinases, only five were inhibited over 90% at 1 µM including Fyn, Lyn, BTK, Abl and RIPK2. Three kinases including KDR, CDK9 and LOK were inhibited 50–90% at 1 µM.

AMPKα1(h) = target: T3, AMPKα1(h) (Homo sapiens, UniProt Q13131); experiment: Kinase selectivity panel: AMPKα1; type: biochemical
T3 construct: purchased Eurofins (Millipore) KinaseProfiler Diversity Panel
Procedure: as §1

ASK1(h) = target: T4, ASK1(h) (Homo sapiens, UniProt Q99683); experiment: Kinase selectivity panel: ASK1; type: biochemical
T4 construct: purchased Eurofins (Millipore) KinaseProfiler Diversity Panel
Procedure: as §1

BTK(R28H)(h) = target: T5, BTK(R28H)(h) (Homo sapiens, UniProt Q06187, R28H); experiment: Kinase selectivity panel: BTK(R28H); type: biochemical; conditions: 1 µM
T5 construct: purchased Eurofins (Millipore) KinaseProfiler Diversity Panel
Procedure: as §1

CDK1/cyclinB(h) = target: T6, CDK1/cyclinB(h) (Homo sapiens, UniProt P06493); experiment: Kinase selectivity panel: CDK1/cyclinB; type: biochemical
T6 construct: purchased Eurofins (Millipore) KinaseProfiler Diversity Panel
Procedure: as §1

CDK2/cyclinA(h) = target: T7, CDK2/cyclinA(h) (Homo sapiens, UniProt P24941); experiment: Kinase selectivity panel: CDK2/cyclinA; type: biochemical
T7 construct: purchased Eurofins (Millipore) KinaseProfiler Diversity Panel
Procedure: as §1

CDK6/cyclinD3(h) = target: T8, CDK6/cyclinD3(h) (Homo sapiens, UniProt Q00534); experiment: Kinase selectivity panel: CDK6/cyclinD3; type: biochemical
T8 construct: purchased Eurofins (Millipore) KinaseProfiler Diversity Panel
Procedure: as §1

CDK7/cyclinH/MAT1(h) = target: T9, CDK7/cyclinH/MAT1(h) (Homo sapiens, UniProt P50613); experiment: Kinase selectivity panel: CDK7/cyclinH/MAT1; type: biochemical
T9 construct: purchased Eurofins (Millipore) KinaseProfiler Diversity Panel
Procedure: as §1

CK2α2(h) = target: T10, CK2α2(h) (Homo sapiens, UniProt P19784); experiment: Kinase selectivity panel: CK2α2; type: biochemical
T10 construct: purchased Eurofins (Millipore) KinaseProfiler Diversity Panel
Procedure: as §1

eEF-2K(h) = target: T11, eEF-2K(h) (Homo sapiens, UniProt O00418); experiment: Kinase selectivity panel: eEF-2K; type: biochemical
T11 construct: purchased Eurofins (Millipore) KinaseProfiler Diversity Panel
Procedure: as §1

EphA5(h) = target: T12, EphA5(h) (Homo sapiens, UniProt P54756); experiment: Kinase selectivity panel: EphA5; type: biochemical; conditions: 1 µM
T12 construct: purchased Eurofins (Millipore) KinaseProfiler Diversity Panel
Procedure: as §1

IGF-1R(h) = target: T13, IGF-1R(h) (Homo sapiens, UniProt P08069); experiment: Kinase selectivity panel: IGF-1R; type: biochemical; conditions: 1 µM
T13 construct: purchased Eurofins (Millipore) KinaseProfiler Diversity Panel
Procedure: as §1

IKKα(h) = target: T14, IKKα(h) (Homo sapiens, UniProt O15111); experiment: Kinase selectivity panel: IKKα; type: biochemical
T14 construct: purchased Eurofins (Millipore) KinaseProfiler Diversity Panel
Procedure: as §1

JAK3(h) = target: T15, JAK3(h) (Homo sapiens, UniProt P52333); experiment: Kinase selectivity panel: JAK3; type: biochemical; conditions: 1 µM
T15 construct: purchased Eurofins (Millipore) KinaseProfiler Diversity Panel
Procedure: as §1

KDR(h) = target: T16, KDR(h) (Homo sapiens, UniProt P35968); experiment: Kinase selectivity panel: KDR; type: biochemical; design: KDR(h), 14 @ 1 µM: unit not given here
T16 construct: purchased Eurofins (Millipore) KinaseProfiler Diversity Panel
Procedure: as §1

LOK(h) = target: T17, LOK(h) (Homo sapiens, UniProt O94804); experiment: Kinase selectivity panel: LOK; type: biochemical
T17 construct: purchased Eurofins (Millipore) KinaseProfiler Diversity Panel
Procedure: as §1

MLK1(h) = target: T18, MLK1(h) (Homo sapiens, UniProt P80192); experiment: Kinase selectivity panel: MLK1; type: biochemical
T18 construct: purchased Eurofins (Millipore) KinaseProfiler Diversity Panel
Procedure: as §1

p70S6K(h) = target: T19, p70S6K(h) (Homo sapiens, UniProt P23443); experiment: Kinase selectivity panel: p70S6K; type: biochemical
T19 construct: purchased Eurofins (Millipore) KinaseProfiler Diversity Panel
Procedure: as §1

PAK2(h) = target: T20, PAK2(h) (Homo sapiens, UniProt Q13177); experiment: Kinase selectivity panel: PAK2; type: biochemical; conditions: 1 µM
T20 construct: purchased Eurofins (Millipore) KinaseProfiler Diversity Panel
Procedure: as §1

Pim-1(h) = target: T21, Pim-1(h) (Homo sapiens, UniProt P11309); experiment: Kinase selectivity panel: Pim-1; type: biochemical
T21 construct: purchased Eurofins (Millipore) KinaseProfiler Diversity Panel
Procedure: as §1

PKA(h) = target: T22, PKA(h) (Homo sapiens, UniProt P17612); experiment: Kinase selectivity panel: PKA; type: biochemical; conditions: 1 µM
T22 construct: purchased Eurofins (Millipore) KinaseProfiler Diversity Panel
Procedure: as §1

PKCα(h) = target: T23, PKCα(h) (Homo sapiens, UniProt P17252); experiment: Kinase selectivity panel: PKCα; type: biochemical; conditions: 1 µM
T23 construct: purchased Eurofins (Millipore) KinaseProfiler Diversity Panel
Procedure: as §1

PKG1α(h) = target: T24, PKG1α(h) (Homo sapiens, UniProt Q13976); experiment: Kinase selectivity panel: PKG1α; type: biochemical
T24 construct: purchased Eurofins (Millipore) KinaseProfiler Diversity Panel
Procedure: as §1

PRAK(h) = target: T25, PRAK(h) (Homo sapiens, UniProt Q8IW41); experiment: Kinase selectivity panel: PRAK; type: biochemical; conditions: 1 µM
T25 construct: purchased Eurofins (Millipore) KinaseProfiler Diversity Panel
Procedure: as §1

ROCK-I(h) = target: T26, ROCK-I(h) (Homo sapiens, UniProt Q13464); experiment: Kinase selectivity panel: ROCK-I; type: biochemical; conditions: 1 µM
T26 construct: purchased Eurofins (Millipore) KinaseProfiler Diversity Panel
Procedure: as §1

Rse(h) = target: T27, Rse(h) (Homo sapiens, UniProt Q06418); experiment: Kinase selectivity panel: Rse; type: biochemical; conditions: 1 µM
T27 construct: purchased Eurofins (Millipore) KinaseProfiler Diversity Panel
Procedure: as §1

Syk(h) = target: T28, Syk(h) (Homo sapiens, UniProt P43405); experiment: Kinase selectivity panel: Syk; type: biochemical
T28 construct: purchased Eurofins (Millipore) KinaseProfiler Diversity Panel
Procedure: as §1

TBK1(h) = target: T29, TBK1(h) (Homo sapiens, UniProt Q9UHD2); experiment: Kinase selectivity panel: TBK1; type: biochemical
T29 construct: purchased Eurofins (Millipore) KinaseProfiler Diversity Panel
Procedure: as §1

TYK2(h) = target: T30, TYK2(h) (Homo sapiens, UniProt P29597); experiment: Kinase selectivity panel: TYK2; type: biochemical; conditions: 1 µM
T30 construct: purchased Eurofins (Millipore) KinaseProfiler Diversity Panel
Procedure: as §1

[3] = target: T31, PI3 Kinase (p110d/p85a)(h) (Homo sapiens, UniProt O00329); experiment: Kinase selectivity panel: PI3 Kinase (p110d/p85a); type: biochemical; conditions: 1 µM
T31 construct: purchased Eurofins (Millipore) KinaseProfiler Diversity Panel
Procedure: as §1

[4] = target: T32, PI3 Kinase (p110a/p85a)(h) (Homo sapiens, UniProt P42336); experiment: Kinase selectivity panel: PI3 Kinase (p110a/p85a); type: biochemical; conditions: 1 µM
T32 construct: purchased Eurofins (Millipore) KinaseProfiler Diversity Panel
Procedure: as §1

T16 sequence (P35968 20-1356): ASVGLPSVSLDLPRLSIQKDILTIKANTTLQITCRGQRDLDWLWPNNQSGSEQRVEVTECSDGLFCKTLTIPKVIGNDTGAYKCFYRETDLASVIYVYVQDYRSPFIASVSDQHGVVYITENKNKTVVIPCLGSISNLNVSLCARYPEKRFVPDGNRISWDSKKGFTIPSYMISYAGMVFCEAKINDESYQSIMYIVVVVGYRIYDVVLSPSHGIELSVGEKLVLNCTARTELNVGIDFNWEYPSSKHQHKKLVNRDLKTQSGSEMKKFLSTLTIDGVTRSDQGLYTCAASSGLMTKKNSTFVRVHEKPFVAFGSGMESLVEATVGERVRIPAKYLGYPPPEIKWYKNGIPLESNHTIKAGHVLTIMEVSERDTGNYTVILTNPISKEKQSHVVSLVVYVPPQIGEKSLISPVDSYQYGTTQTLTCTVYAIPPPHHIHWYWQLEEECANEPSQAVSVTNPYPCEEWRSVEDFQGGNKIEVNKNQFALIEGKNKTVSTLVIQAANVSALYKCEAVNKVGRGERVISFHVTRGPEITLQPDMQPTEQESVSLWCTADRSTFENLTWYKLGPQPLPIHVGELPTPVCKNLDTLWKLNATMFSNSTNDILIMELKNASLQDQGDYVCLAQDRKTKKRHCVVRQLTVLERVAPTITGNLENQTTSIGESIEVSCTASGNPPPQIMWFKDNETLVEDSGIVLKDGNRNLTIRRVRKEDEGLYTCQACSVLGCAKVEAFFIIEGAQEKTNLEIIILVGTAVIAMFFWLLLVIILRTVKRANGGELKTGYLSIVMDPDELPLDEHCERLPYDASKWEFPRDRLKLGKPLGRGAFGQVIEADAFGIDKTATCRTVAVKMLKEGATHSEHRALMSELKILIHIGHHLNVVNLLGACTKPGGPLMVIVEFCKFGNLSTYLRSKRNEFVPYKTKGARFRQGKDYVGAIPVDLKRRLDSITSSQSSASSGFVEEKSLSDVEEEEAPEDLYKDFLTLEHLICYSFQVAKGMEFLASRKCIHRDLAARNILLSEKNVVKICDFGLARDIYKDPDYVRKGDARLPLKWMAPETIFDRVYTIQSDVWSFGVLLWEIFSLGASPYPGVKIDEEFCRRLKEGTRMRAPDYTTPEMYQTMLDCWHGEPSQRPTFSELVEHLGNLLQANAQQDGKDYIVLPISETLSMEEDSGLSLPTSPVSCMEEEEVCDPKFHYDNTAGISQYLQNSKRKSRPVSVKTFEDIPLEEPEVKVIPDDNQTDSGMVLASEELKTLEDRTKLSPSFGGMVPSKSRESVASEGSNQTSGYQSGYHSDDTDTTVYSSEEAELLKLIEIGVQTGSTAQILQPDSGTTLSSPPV
T17 sequence (O94804 whole entry): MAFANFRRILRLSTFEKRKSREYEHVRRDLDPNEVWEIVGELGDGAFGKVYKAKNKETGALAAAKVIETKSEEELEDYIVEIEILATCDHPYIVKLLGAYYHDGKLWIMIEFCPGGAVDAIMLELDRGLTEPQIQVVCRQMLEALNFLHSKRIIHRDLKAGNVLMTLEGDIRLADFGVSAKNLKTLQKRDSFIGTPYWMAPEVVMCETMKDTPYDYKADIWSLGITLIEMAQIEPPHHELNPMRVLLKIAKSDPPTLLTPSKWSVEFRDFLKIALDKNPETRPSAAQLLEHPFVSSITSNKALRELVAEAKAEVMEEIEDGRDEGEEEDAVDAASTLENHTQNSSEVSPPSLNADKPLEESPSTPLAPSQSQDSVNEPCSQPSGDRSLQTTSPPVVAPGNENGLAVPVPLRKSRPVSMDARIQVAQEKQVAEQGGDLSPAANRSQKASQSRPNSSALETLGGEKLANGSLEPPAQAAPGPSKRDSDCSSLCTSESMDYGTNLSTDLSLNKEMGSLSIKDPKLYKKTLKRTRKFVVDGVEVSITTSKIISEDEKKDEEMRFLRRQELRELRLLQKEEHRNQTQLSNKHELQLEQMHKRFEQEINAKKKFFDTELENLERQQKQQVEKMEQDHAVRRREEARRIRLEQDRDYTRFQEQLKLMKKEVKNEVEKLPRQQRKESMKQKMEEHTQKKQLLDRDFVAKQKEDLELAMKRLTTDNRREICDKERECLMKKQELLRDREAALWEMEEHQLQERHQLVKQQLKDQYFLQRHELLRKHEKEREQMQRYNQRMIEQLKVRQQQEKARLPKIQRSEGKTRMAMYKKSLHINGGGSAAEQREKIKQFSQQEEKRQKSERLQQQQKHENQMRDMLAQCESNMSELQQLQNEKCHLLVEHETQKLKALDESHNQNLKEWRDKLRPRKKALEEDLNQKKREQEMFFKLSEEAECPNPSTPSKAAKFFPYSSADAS
T14 sequence (O15111 whole entry): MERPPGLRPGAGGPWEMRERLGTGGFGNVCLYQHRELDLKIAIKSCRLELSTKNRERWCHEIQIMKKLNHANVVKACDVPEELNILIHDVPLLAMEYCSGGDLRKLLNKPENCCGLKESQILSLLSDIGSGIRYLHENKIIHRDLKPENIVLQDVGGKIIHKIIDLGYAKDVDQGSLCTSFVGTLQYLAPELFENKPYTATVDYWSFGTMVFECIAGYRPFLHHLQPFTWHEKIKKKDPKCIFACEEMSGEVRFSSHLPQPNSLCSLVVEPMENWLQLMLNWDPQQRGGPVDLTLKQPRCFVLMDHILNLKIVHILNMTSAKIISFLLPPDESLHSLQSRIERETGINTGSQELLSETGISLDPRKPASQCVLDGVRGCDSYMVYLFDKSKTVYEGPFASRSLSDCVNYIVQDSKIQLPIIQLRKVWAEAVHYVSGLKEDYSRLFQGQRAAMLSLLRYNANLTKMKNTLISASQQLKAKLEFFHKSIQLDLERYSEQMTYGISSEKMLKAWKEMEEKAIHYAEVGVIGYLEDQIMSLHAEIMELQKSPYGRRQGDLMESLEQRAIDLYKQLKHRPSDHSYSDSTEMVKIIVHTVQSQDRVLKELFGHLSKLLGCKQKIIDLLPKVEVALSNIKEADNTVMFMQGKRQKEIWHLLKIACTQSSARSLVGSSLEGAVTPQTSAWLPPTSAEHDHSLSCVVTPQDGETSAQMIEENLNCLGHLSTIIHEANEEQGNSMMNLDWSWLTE
T2 sequence (Q9UM73 19-1620): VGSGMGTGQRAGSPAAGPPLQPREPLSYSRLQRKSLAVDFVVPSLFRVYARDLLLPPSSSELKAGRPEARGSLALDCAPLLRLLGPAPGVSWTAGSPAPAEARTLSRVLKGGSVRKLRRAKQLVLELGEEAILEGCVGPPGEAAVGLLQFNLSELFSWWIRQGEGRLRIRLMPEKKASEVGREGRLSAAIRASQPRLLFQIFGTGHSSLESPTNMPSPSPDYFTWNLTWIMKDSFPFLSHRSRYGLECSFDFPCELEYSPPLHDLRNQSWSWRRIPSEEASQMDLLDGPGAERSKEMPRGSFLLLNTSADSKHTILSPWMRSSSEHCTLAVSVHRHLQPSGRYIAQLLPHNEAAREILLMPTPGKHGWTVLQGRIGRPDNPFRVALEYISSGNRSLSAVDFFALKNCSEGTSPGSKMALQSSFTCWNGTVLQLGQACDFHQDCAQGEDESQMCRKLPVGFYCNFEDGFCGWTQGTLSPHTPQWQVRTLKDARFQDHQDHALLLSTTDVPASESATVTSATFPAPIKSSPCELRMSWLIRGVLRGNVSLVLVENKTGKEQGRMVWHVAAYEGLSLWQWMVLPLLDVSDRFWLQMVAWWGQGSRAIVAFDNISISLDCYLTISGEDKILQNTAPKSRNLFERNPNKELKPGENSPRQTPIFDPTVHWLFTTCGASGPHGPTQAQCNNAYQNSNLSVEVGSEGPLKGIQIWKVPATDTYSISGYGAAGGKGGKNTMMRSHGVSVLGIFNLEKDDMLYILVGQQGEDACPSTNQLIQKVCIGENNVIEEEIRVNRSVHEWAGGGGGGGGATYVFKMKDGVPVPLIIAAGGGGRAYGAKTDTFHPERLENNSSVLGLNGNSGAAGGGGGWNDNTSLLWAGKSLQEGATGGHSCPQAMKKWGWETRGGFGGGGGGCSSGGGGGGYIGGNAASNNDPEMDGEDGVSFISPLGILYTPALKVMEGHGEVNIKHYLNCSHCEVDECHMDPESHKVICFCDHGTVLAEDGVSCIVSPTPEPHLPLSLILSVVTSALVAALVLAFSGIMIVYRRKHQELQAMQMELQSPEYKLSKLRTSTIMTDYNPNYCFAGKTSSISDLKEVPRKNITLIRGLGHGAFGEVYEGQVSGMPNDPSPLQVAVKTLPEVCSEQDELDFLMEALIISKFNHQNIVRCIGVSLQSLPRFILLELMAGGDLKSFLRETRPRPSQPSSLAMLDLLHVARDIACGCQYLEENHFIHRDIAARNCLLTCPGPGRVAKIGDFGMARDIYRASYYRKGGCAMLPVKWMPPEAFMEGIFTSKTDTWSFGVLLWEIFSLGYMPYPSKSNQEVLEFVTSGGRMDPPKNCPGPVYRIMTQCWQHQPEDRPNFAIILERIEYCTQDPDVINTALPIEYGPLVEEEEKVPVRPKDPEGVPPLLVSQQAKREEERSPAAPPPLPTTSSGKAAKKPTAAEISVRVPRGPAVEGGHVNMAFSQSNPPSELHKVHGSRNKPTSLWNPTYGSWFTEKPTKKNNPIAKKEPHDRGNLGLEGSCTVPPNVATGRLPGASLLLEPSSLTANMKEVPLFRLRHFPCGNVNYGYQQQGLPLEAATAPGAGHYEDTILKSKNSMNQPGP
T21 sequence (P11309 whole entry): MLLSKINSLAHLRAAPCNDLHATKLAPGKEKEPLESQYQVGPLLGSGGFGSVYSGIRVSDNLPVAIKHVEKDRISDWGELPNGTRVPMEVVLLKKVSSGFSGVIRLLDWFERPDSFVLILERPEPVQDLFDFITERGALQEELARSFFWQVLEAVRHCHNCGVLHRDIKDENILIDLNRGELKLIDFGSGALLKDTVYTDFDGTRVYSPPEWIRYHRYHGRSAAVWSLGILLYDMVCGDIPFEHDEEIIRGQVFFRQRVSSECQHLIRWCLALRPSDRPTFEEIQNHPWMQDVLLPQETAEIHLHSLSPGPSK

Structure (SMILES): c1cc(-c2ccc3nccc(Nc4ccc5scnc5c4)c3c2)ccn1 [Compound 14, N-(6-(pyridin-4-yl)quinolin-4-yl)benzo[d]thiazol-5-amine]
- IC50 (RIPK2): 5.1 ± 1.6 nM
- inhibition of MDP-induced TNF-α secretion [1]: strong inhibitory activity on MDP-induced TNF-α secretion with a dose-dependent manner
- CL [2]: 9.64 mL/min/kg
- half-life [2]: 96.3 min
- ALK remaining activity (% of control) (ALK(h)): 77
- Remaining kinase activity (%) with compound 14 at 1 µM (AMPKα1(h)): 103
- ASK1 remaining activity (% of control) with compound 14 at 1 µM (ASK1(h)): 87
- percent remaining kinase activity (BTK(R28H)(h)): 63
- CDK1/cyclinB remaining activity (% of control) with compound 14 at 1 µM (CDK1/cyclinB(h)): 90
- CDK2/cyclinA remaining activity (%) with compound 14 at 1 µM (CDK2/cyclinA(h)): 78
- Remaining kinase activity (%) at 1 µM (CDK6/cyclinD3(h)): 100
- CDK7/cyclinH/MAT1(h), 14 @ 1 µM (CDK7/cyclinH/MAT1(h)): 83
- Remaining CK2α2 kinase activity (%) with compound 14 at 1 µM (CK2α2(h)): 104
- remaining kinase activity (% of control) with compound 14 at 1 µM (eEF-2K(h)): 102
- Remaining kinase activity (% of control) (EphA5(h)): 96
- remaining IGF-1R activity (% of control) (IGF-1R(h)): 109
- Remaining IKKα activity at 1 µM (% of control) (IKKα(h)): 104
- Remaining kinase activity (% of control) (JAK3(h)): 100
- KDR(h), 14 @ 1 µM (KDR(h); 1 µM): 11
- inhibition at 1 µM (KDR(h); at 1 µM): 50 to 90%
- LOK remaining activity (% of control) (LOK(h); 1 µM): 44
- inhibition at 1 µM (LOK(h); at 1 µM): 50 to 90%
- Remaining MLK1 activity (%) with compound 14 at 1 µM (MLK1(h)): 89
- Remaining kinase activity (% of control) at 1 µM compound 14 (p70S6K(h)): 95
- percent remaining kinase activity (PAK2(h)): 100
- remaining kinase activity (% of control) with compound 14 at 1 µM (Pim-1(h)): 78
- Remaining kinase activity (% of control) (PKA(h)): 117
- % remaining kinase activity (PKCα(h)): 94
- Remaining PKG1α activity (% of control) with compound 14 at 1 µM (PKG1α(h)): 64
- remaining kinase activity (%) (PRAK(h)): 123
- Remaining kinase activity (% of control) (ROCK-I(h)): 70
- Remaining kinase activity (% of control) (Rse(h)): 121
- % remaining kinase activity with compound 14 at 1 µM (Syk(h)): 94
- TBK1 remaining activity (%) with compound 14 at 1 µM (TBK1(h)): 97
- kinase activity remaining (% of control) (TYK2(h)): 108
- Remaining kinase activity (% of control) [3]: 54
- percent remaining kinase activity [4]: 81
